The target of one series is CYP3A4 (Homo sapiens, UniProt P08684). The series is described as follows: Preliminary P450 inhibition screen, CYP3A4. The source says:
(§1) These studies consisted of solubility assessment, LogD^7.4 determination and a preliminary screen to detect cytochrome P450 enzyme inhibition.

The next series in a line: in vitro. The following applies: mouse.
Series [1] is described as follows: Cytotoxicity / growth inhibition, summary over several cell lines. To be noted: human, mouse.
Another series deals with tumor cell lines. The series is described as above. To be noted: 48 h, read-out: EC50 values against RPMI 8226 and the prostate cell lines.
A short description of a further series: Solubility assessment. To be noted: PBS, pH 7.4, aqueous buffer.
From the text: as §1

The next series relates to LPS-induced plasma TNF. The series is described as follows: Inhibition of in vivo LPS-induced TNF. The following applies: 0.125 or […] i.v., 30 minutes post-LPS (2 mg/kg i.p.), mice. The method, then:
Male Swiss Webster mice (12/group weighing 20-25 g) were injected with LPS (2 mg/kg) by the i.p. route. […] Ninety minutes after LPS injection, the mice were anesthetized with Isoflurane and bled by cardiac puncture to obtain plasma. Remaining blood pellet was then resuspended in 500 μL of PBS to wash away residual serum proteins and centrifuged again. Supernatant was removed and blood pellet frozen for analysis of proteasome inhibition in packed whole blood lysate.
Animals were dosed i.v. with 4 ml/kg. A vehicle control solution was also prepared by making the same 1:160 dilution with 100% DMSO into 10% solutol solution giving a final concentration of 9.375% solutol in water and 0.625% DMSO. Measurements of plasma TNF were performed using the Biosource mTNF Cytoset kit (Biosource Intl., Camarillo, Calif.; catalog #CMC3014) according to manufacturer's instructions. Samples were diluted 1:60 for the assay.

A further series addresses CYP2C19 (Homo sapiens, UniProt P33261). As to the kind of experiment: Preliminary P450 inhibition screen, CYP2C19.
From the text: as §1

Series [2] relates to PARP and Pro-Caspase 3 cleavage in RPMI 8226 cells. The series is described as follows: Cleavage of PARP and Pro-Caspase 3 (western blot), RPMI 8226. The series is classed as cell-based, human. To be noted: 100 nM, 0, 8 or 24 hours. The method, then: Total protein lysates were made and 20 μg of the lysates were then resolved under reducing/denaturing conditions and blotted onto nitrocellulose. The blots were then probed with anti-PARP or anti-caspase 3 antibodies followed by stripping and reprobing with an anti-actin antibody.
25 μg of the lysates were then resolved under reducing/denaturing conditions and blotted onto nitrocellulose. The blots were then probed with anti-PARP or anti-caspase 3 antibodies followed by stripping and reprobing with an anti-actin antibody.

For a further series, the system named is SK-MEL-28 melanoma cells. The series is described as follows: NCI screen, SK-MEL-28. The series is classed as cell-based. To be noted: Homo sapiens, SK-MEL-28, read-out: LC50. The method, then: A detailed description of the screening procedure can be found at hypertext transfer protocol (http://) “dtp.nci.nih.gov/branches/btb/ivclsp.html.”
In brief, each of the 60 human tumor cell lines were grown in RPMI 1640 medium, supplemented with 5% fetal bovine serum and 2 mM L-glutamine. Cells were plated at their appropriate density in 96-well microtiter plates and incubated at 37° C., 5% CO2, 95% air and 100% relative humidity. […] Cells were incubated for an additional 48 hours and a sulforhodamine B protein assay was used to estimate cell viability or growth.

The target of a further series is CYP1A2 (Homo sapiens, UniProt P05177). The series is described as follows: Preliminary P450 inhibition screen, CYP1A2.
From the text: as §1

In the next series the test system is HEK293 cells. As to the kind of experiment: Cell growth inhibition (resazurin, 48 hours), HEK293. The series is classed as cell-based. The following applies: Table 2, HEK293, human embryonic kidney, read-out: EC50 (nM), mean ± SD. Background: Resazurin is reduced to fluorescent resorufin, in cell work by metabolically active cells.
The target of a further series is CYP2C9 (Homo sapiens, UniProt P11712). The series is described as follows: Preliminary P450 inhibition screen, CYP2C9.
From the text: as §1

The next series deals with CCD-27sk cells. The series is described as follows: Cytotoxic activity against normal human fibroblasts. The following applies: 48h, panel of b226. The series is classed as cell-based.
Series [3] concerns LeTx-induced cytotoxicity of RAW264.7 cells.
The nature of another series: LogD7.4 determination. To be noted: pH 7.4.
From the text: as §1

Series [4] relates to IκBα in HEK293 cells and NF-κB/Luc 293 reporter clone. The series is described as follows: Western blot of phosphorylated-IκBα and total IκBα. The series is classed as cell-based, human. The following applies: 50 and 500 nM, 1 hour pre-treatment, TNF-α 10 ng/mL 30 minutes. The method, then: Endogenous protein levels were assessed in both HEK293 cells and the NF-κB/Luc 293 reporter clone.
Antibodies against total and phosphorylated forms of IκBα were used to determine the endogenous level of each protein and anti-Tubulin antibody was used to confirm equal loading of protein.
On the technique in general: Immunoblotting shows a protein as a band on a membrane.

A further series deals with DU 145 cells. The series is described as follows: Cell growth inhibition (resazurin, 48 hours), DU 145. The following applies: for EC50: read-out: EC50 (nM), mean ± SD. The series is classed as cell-based, human.
A further series relates to Jurkat cells. As to the kind of experiment: Cytotoxicity against Jurkat cells. The series is classed as cell-based, human.

Values joined by “and” are separate entries in the source; they are usually repeats but may differ in a detail not shown here. Equal values may be shown once. Read-outs that look alike come from different tables or passages of the source.

Chain of CYP1A2 (P05177 whole entry): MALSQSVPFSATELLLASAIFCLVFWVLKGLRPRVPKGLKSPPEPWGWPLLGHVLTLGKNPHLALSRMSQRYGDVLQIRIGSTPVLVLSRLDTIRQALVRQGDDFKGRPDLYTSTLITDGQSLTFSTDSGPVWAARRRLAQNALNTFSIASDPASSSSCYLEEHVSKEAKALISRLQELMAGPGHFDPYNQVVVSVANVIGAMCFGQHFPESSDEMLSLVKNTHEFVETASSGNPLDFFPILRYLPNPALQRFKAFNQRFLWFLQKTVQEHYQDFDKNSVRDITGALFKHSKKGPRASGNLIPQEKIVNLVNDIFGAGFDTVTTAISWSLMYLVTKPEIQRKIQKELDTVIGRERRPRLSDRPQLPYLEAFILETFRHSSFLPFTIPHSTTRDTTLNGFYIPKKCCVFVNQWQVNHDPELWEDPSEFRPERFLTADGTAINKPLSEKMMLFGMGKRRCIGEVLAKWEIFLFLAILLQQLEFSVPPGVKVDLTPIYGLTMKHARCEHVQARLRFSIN
Chain of CYP2C9 (P11712 whole entry): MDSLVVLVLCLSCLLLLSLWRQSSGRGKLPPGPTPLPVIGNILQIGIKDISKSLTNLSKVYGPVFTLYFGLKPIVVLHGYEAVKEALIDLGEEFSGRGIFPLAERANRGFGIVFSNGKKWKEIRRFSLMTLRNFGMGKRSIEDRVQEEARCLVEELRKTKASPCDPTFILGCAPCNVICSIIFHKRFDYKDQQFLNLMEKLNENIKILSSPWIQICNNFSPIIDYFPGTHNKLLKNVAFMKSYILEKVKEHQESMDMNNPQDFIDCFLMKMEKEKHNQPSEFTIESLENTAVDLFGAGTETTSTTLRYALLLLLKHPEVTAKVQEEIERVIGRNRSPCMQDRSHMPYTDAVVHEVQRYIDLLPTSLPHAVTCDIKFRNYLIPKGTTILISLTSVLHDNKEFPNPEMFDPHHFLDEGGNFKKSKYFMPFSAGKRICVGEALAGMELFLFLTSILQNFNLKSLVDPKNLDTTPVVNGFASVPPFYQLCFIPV
Chain of CYP2C19 (P33261 whole entry): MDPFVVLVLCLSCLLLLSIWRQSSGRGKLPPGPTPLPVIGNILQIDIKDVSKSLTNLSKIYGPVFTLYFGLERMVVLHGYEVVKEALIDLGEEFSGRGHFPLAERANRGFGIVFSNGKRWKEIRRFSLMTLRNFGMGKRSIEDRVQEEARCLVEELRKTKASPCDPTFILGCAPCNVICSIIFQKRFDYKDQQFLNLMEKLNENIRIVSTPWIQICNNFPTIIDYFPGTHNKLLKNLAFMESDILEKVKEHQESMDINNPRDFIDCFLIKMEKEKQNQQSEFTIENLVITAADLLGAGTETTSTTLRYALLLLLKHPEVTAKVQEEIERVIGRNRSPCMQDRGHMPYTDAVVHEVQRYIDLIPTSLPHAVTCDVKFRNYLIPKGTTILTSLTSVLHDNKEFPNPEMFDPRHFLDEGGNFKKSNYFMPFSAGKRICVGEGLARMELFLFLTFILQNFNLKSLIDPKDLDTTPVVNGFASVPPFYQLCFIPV
Chain of CYP3A4 (P08684 whole entry): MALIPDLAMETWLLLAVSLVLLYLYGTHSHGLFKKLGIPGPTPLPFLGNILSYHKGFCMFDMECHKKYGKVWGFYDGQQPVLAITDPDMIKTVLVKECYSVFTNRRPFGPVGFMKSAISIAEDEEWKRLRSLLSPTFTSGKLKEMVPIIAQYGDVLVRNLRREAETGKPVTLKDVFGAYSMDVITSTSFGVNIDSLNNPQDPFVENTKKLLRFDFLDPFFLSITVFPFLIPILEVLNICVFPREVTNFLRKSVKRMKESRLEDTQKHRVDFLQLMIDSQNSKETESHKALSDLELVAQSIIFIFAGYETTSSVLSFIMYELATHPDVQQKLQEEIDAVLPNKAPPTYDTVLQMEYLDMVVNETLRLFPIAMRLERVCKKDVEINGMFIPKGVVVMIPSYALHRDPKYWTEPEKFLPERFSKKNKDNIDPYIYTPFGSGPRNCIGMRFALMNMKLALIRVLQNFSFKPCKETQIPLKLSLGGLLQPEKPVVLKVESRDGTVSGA

Usually inhibition stands for the share of the control response that was lost under treatment. The term viability denotes a per cent measure of how many cells are alive, often set against a control. Lower therefore signals more harm to the cells. Broadly, the EC50 is the concentration giving half of the maximal effect. By solubility is commonly meant how much of the substance goes into solution per volume. In the case of `C[C@@]12OC(=O)[C@]1([C@@H](O)[C@@H]1C=CCCC1)NC(=O)[C@@H]2CCCl` [Formula II-16, Salinosporamide A], the inhibition at 10 µM was 6% on CYP3A4, 22% at CYP2C19, 3% on CYP1A2 and 6% on CYP2C9. Moreover, the viability at […] in “in vitro” was 96%. Further, the EC50 at 48 h in series [1] was 10 to 200 nM. The EC50 is 10 to 37 nM in the series on tumor cell lines; 47 nM with HEK293 cells; 196 nM in the series with CCD-27sk cells; 3.6 nM in series [3] (read-out: average EC50, viability of LeTx-treated cells); 37 ± 10 nM with DU 145 cells (Homo sapiens, Table 6, DU 145 (n = 3)); 37 ± 10 nM with DU 145 cells (Table 2, DU 145, human prostate carcinoma, 48 hours). The same compound gave an EC50 in the series on Jurkat cells (Homo sapiens, Jurkat) of 10 nM. For the same compound, in the series “Solubility assessment”, the solubility was 9.6 µM and 3 µg/mL. Besides, in the series with LPS-induced plasma TNF, the “reduction of LPS-induced plasma TNF levels” value is recorded as “approximately 65%”. In addition, in [2], the “induction of PARP cleavage” value was “noticeable at 8 hours and complete by 24 hours”. Further, in the series with SK-MEL-28 melanoma cells, the CC50 was below 10 nM. Moreover, the “cell-viability, compound + LeTx” value in [3] was 82%. Moreover, the “increase in the viability of LeTx-treated cells compared to LeTx treatment alone” value in [3] amounted to 10 fold. In the series “LogD7.4 determination”, this compound showed a LogD7.4 of 2.4. The “degradation of total IκBα and phospho-IκBα level” value in series [4] was “reduced the degradation of total IκBα but also retained the phospho-IκBα level”. In addition, in the series on DU 145 cells (Table 6, DU 145 (n = 3)), the “% cytotoxicity, mean ± SD” value amounted to 75 ± 4%. Further, the “% max cell kill” value in the series on Jurkat cells (Table 5, Jurkat Cells) was 97%.

Source of the values: US20050049294A1, “Methods of using [3.2.0] heterocyclic compounds and analogs thereof” (priority 2003, published 2005).
